Test results: patent publication US8680012B2, “4-phenyl-pyrane-3,5-diones,4-phenyl-thiopyrane-3,6-diones and cyclohexanetriones as novel herbicides” (Syngenta Crop Protection LLC, priority 2006, dated 2014)

Test system: Avena fatua (AVEFA)
Assay: Example B pre-emergence herbicidal activity, glasshouse pot test
Type: in vivo
Settings: 312 h, rate 250 g/ha, evaluated after 13 days, read-out: Pre-emergence activity AVEFA (100=total damage to plant; 0=no damage to plant)
Description: (§1) Seeds of a variety of test species were sown in standard soil in pots. After cultivation for one day (pre-emergence) or after 8 days cultivation (post-emergence) under controlled conditions in a glasshouse (at 24/16° C., day/night; 14 hours light; 65% humidity), the plants were sprayed with an aqueous spray solution derived from the formulation of the technical active ingredient in acetone/water (50:50) solution containing 0.5% Tween 20 (polyoxyethelyene sorbitan monolaurate, CAS RN 9005-64-5). The test plants were then grown in a glasshouse under controlled conditions in a glasshouse (at 24/16° C., day/night; 14 hours light; 65% humidity) and watered twice daily. After 13 days for pre and post-emergence, the test was evaluated (100=total damage to plant; 0=no damage to plant).
(§2) Alopecurus myosuroides (ALOMY), Avena fatua (AVEFA), Setaria faberi (SETFA), Echinochloa crus-galli (ECHCG), Solanum nigrum (SOLNI) and Amaranthus retroflexus (AMARE)

`CCc1ccc(-c2ccc(Cl)c(F)c2)cc1C1=C(O)C(C)(C)SC(C)(C)C1=O` (single isomer, unassigned) [Compound C-5] and `Cc1ccc(-c2ccc(Cl)c(F)c2)cc1C1=C(O)C(C)(C)SC(C)(C)C1=O` (single isomer, unassigned) [Compound C-9] are the same in pest or weed control at 250 g/ha: 0% for the first, 0% for the second.

First: Cc1ccc(-c2ccc(Cl)cc2Cl)cc1C1=C(O)C(C)(C)[S+]([O-])C(C)(C)C1=O (single isomer, unassigned) [Compound C-7]
Second: CCc1ccc(-c2ccc(Cl)cc2Cl)cc1C1=C(O)C(C)(C)[S+]([O-])C(C)(C)C1=O (single isomer, unassigned) [Compound C-10]
The pest or weed control at 250 g/ha of the first is lower: 0% for the first, 20% for the second.

Test system: Setaria faberi (SETFA)
Assay: as above
Type: in vivo
Settings: 312 h, rate 250 g/ha, evaluated after 13 days, read-out: Pre-emergence activity SETFA (100=total damage to plant; 0=no damage to plant)
Description: as §1, §2

`CCc1ccc(-c2ccc(Cl)c(F)c2)cc1C1=C(O)C(C)(C)SC(C)(C)C1=O` (single isomer, unassigned) [Compound C-5] and `Cc1ccc(-c2ccc(Cl)c(F)c2)cc1C1=C(O)C(C)(C)SC(C)(C)C1=O` (single isomer, unassigned) [Compound C-9] are the same in pest or weed control at 250 g/ha: 0% for the first, 0% for the second.

`Cc1ccc(-c2ccc(Cl)cc2Cl)cc1C1=C(O)C(C)(C)[S+]([O-])C(C)(C)C1=O` (single isomer, unassigned) [Compound C-7] and `CCc1ccc(-c2ccc(Cl)cc2Cl)cc1C1=C(O)C(C)(C)[S+]([O-])C(C)(C)C1=O` (single isomer, unassigned) [Compound C-10] are the same in pest or weed control at 250 g/ha: 0% for the first, 0% for the second.

Test system: Echinochloa crus-galli (ECHCG)
Assay: as above
Type: in vivo
Settings: 312 h, rate 250 g/ha, evaluated after 13 days, read-out: Pre-emergence activity ECHCG (100=total damage to plant; 0=no damage to plant)
Description: as §1, §2

`CCc1ccc(-c2ccc(Cl)c(F)c2)cc1C1=C(O)C(C)(C)SC(C)(C)C1=O` (single isomer, unassigned) [Compound C-5] and `Cc1ccc(-c2ccc(Cl)c(F)c2)cc1C1=C(O)C(C)(C)SC(C)(C)C1=O` (single isomer, unassigned) [Compound C-9] are the same in pest or weed control at 250 g/ha: 0% for the first, 0% for the second.

Going from `Cc1ccc(-c2ccc(Cl)cc2Cl)cc1C1=C(O)C(C)(C)[S+]([O-])C(C)(C)C1=O` (single isomer, unassigned) [Compound C-7] to `CCc1ccc(-c2ccc(Cl)cc2Cl)cc1C1=C(O)C(C)(C)[S+]([O-])C(C)(C)C1=O` (single isomer, unassigned) [Compound C-10], the pest or weed control at 250 g/ha rises from 0% to 40%.

Test system: Amaranthus retroflexus (AMARE)
Assay: as above
Type: in vivo
Settings: 312 h, rate 250 g/ha, evaluated after 13 days, read-out: Pre-emergence activity AMARE (100=total damage to plant; 0=no damage to plant)
Description: as §1, §2

`CCc1ccc(-c2ccc(Cl)c(F)c2)cc1C1=C(O)C(C)(C)SC(C)(C)C1=O` (single isomer, unassigned) [Compound C-5] and `Cc1ccc(-c2ccc(Cl)c(F)c2)cc1C1=C(O)C(C)(C)SC(C)(C)C1=O` (single isomer, unassigned) [Compound C-9] are the same in pest or weed control at 250 g/ha: 0% for the first, 0% for the second.

`Cc1ccc(-c2ccc(Cl)cc2Cl)cc1C1=C(O)C(C)(C)[S+]([O-])C(C)(C)C1=O` (single isomer, unassigned) [Compound C-7] and `CCc1ccc(-c2ccc(Cl)cc2Cl)cc1C1=C(O)C(C)(C)[S+]([O-])C(C)(C)C1=O` (single isomer, unassigned) [Compound C-10] are the same in pest or weed control at 250 g/ha: 0% for the first, 0% for the second.

Test system: Alopecurus myosuroides (ALOMY)
Assay: as above
Type: in vivo
Settings: 312 h, rate 250 g/ha, evaluated after 13 days, read-out: Pre-emergence activity ALOMY (100=total damage to plant; 0=no damage to plant)
Description: as §1, §2

`CCc1ccc(-c2ccc(Cl)c(F)c2)cc1C1=C(O)C(C)(C)SC(C)(C)C1=O` (single isomer, unassigned) [Compound C-5] and `Cc1ccc(-c2ccc(Cl)c(F)c2)cc1C1=C(O)C(C)(C)SC(C)(C)C1=O` (single isomer, unassigned) [Compound C-9] are the same in pest or weed control at 250 g/ha: 0% for the first, 0% for the second.

Going from `Cc1ccc(-c2ccc(Cl)cc2Cl)cc1C1=C(O)C(C)(C)[S+]([O-])C(C)(C)C1=O` (single isomer, unassigned) [Compound C-7] to `CCc1ccc(-c2ccc(Cl)cc2Cl)cc1C1=C(O)C(C)(C)[S+]([O-])C(C)(C)C1=O` (single isomer, unassigned) [Compound C-10], the pest or weed control at 250 g/ha rises from 0% to 20%.

Test system: Avena fatua (AVEFA)
Assay: Example B post-emergence herbicidal activity, glasshouse pot test
Type: in vivo
Settings: 312 h, rate 250 g/ha, evaluated after 13 days, read-out: Post-emergence activity AVEFA (100=total damage to plant; 0=no damage to plant)
Description: as §1, §2

Compared with `CCc1ccc(-c2ccc(Cl)c(F)c2)cc1C1=C(O)C(C)(C)SC(C)(C)C1=O` (single isomer, unassigned) [Compound C-5], `Cc1ccc(-c2ccc(Cl)c(F)c2)cc1C1=C(O)C(C)(C)SC(C)(C)C1=O` (single isomer, unassigned) [Compound C-9] is lower in pest or weed control at 250 g/ha: 70% for the first, 40% for the second.

Compared with `Cc1ccc(-c2ccc(Cl)cc2Cl)cc1C1=C(O)C(C)(C)[S+]([O-])C(C)(C)C1=O` (single isomer, unassigned) [Compound C-7], `CCc1ccc(-c2ccc(Cl)cc2Cl)cc1C1=C(O)C(C)(C)[S+]([O-])C(C)(C)C1=O` (single isomer, unassigned) [Compound C-10] is higher in pest or weed control at 250 g/ha: 0% for the first, 50% for the second.

Test system: Setaria faberi (SETFA)
Assay: as above
Type: in vivo
Settings: 312 h, rate 250 g/ha, evaluated after 13 days, read-out: Post-emergence activity SETFA (100=total damage to plant; 0=no damage to plant)
Description: as §1, §2

Going from `CCc1ccc(-c2ccc(Cl)c(F)c2)cc1C1=C(O)C(C)(C)SC(C)(C)C1=O` (single isomer, unassigned) [Compound C-5] to `Cc1ccc(-c2ccc(Cl)c(F)c2)cc1C1=C(O)C(C)(C)SC(C)(C)C1=O` (single isomer, unassigned) [Compound C-9], the pest or weed control at 250 g/ha falls from 90% to 10%.

First: Cc1ccc(-c2ccc(Cl)cc2Cl)cc1C1=C(O)C(C)(C)[S+]([O-])C(C)(C)C1=O (single isomer, unassigned) [Compound C-7]
Second: CCc1ccc(-c2ccc(Cl)cc2Cl)cc1C1=C(O)C(C)(C)[S+]([O-])C(C)(C)C1=O (single isomer, unassigned) [Compound C-10]
The pest or weed control at 250 g/ha of the first is higher: 30% for the first, 20% for the second.

Test system: Echinochloa crus-galli (ECHCG)
Assay: as above
Type: in vivo
Settings: 312 h, rate 250 g/ha, evaluated after 13 days, read-out: Post-emergence activity ECHCG (100=total damage to plant; 0=no damage to plant)
Description: as §1, §2

First: CCc1ccc(-c2ccc(Cl)c(F)c2)cc1C1=C(O)C(C)(C)SC(C)(C)C1=O (single isomer, unassigned) [Compound C-5]
Second: Cc1ccc(-c2ccc(Cl)c(F)c2)cc1C1=C(O)C(C)(C)SC(C)(C)C1=O (single isomer, unassigned) [Compound C-9]
The pest or weed control at 250 g/ha of the first is higher: 100% for the first, 70% for the second.

First: Cc1ccc(-c2ccc(Cl)cc2Cl)cc1C1=C(O)C(C)(C)[S+]([O-])C(C)(C)C1=O (single isomer, unassigned) [Compound C-7]
Second: CCc1ccc(-c2ccc(Cl)cc2Cl)cc1C1=C(O)C(C)(C)[S+]([O-])C(C)(C)C1=O (single isomer, unassigned) [Compound C-10]
The pest or weed control at 250 g/ha of the first is lower: 60% for the first, 70% for the second.

Test system: Amaranthus retroflexus (AMARE)
Assay: as above
Type: in vivo
Settings: 312 h, rate 250 g/ha, evaluated after 13 days, read-out: Post-emergence activity AMARE (100=total damage to plant; 0=no damage to plant)
Description: as §1, §2

`CCc1ccc(-c2ccc(Cl)c(F)c2)cc1C1=C(O)C(C)(C)SC(C)(C)C1=O` (single isomer, unassigned) [Compound C-5] and `Cc1ccc(-c2ccc(Cl)c(F)c2)cc1C1=C(O)C(C)(C)SC(C)(C)C1=O` (single isomer, unassigned) [Compound C-9] are the same in pest or weed control at 250 g/ha: 0% for the first, 0% for the second.

`Cc1ccc(-c2ccc(Cl)cc2Cl)cc1C1=C(O)C(C)(C)[S+]([O-])C(C)(C)C1=O` (single isomer, unassigned) [Compound C-7] and `CCc1ccc(-c2ccc(Cl)cc2Cl)cc1C1=C(O)C(C)(C)[S+]([O-])C(C)(C)C1=O` (single isomer, unassigned) [Compound C-10] are the same in pest or weed control at 250 g/ha: 0% for the first, 0% for the second.

Test system: Alopecurus myosuroides (ALOMY)
Assay: as above
Type: in vivo
Settings: 312 h, rate 250 g/ha, evaluated after 13 days, read-out: Post-emergence activity ALOMY (100=total damage to plant; 0=no damage to plant)
Description: as §1, §2

First: CCc1ccc(-c2ccc(Cl)c(F)c2)cc1C1=C(O)C(C)(C)SC(C)(C)C1=O (single isomer, unassigned) [Compound C-5]
Second: Cc1ccc(-c2ccc(Cl)c(F)c2)cc1C1=C(O)C(C)(C)SC(C)(C)C1=O (single isomer, unassigned) [Compound C-9]
The pest or weed control at 250 g/ha of the first is higher: 70% for the first, 50% for the second.

`Cc1ccc(-c2ccc(Cl)cc2Cl)cc1C1=C(O)C(C)(C)[S+]([O-])C(C)(C)C1=O` (single isomer, unassigned) [Compound C-7] and `CCc1ccc(-c2ccc(Cl)cc2Cl)cc1C1=C(O)C(C)(C)[S+]([O-])C(C)(C)C1=O` (single isomer, unassigned) [Compound C-10] are the same in pest or weed control at 250 g/ha: 20% for the first, 20% for the second.
